Results reported in patent publication US20250160718A1, “SYSTEMS AND METHODS FOR HIGH-DENSITY LONG-TERM INTRACELLULAR ELECTROPHYSIOLOGY” (President and Fellows of Harvard College, priority 2022, published 2025).

Experiments:
[1] = test system: MDCK cells
Description: This example describes a technique that uses cross-electrode impedance mapping to quantify adhesion or adherence of cells in a cell culture. The terms “adhesion” and “adherence” may be used interchangeably herein.
In this example, ethylenediaminetetraacetic acid (EDTA) was applied to the cells. EDTA is a calcium chelator that removes Ca^2+ needed for integrin proteins to maintain cell adhesion. With EDTA applied, the cells quickly detached over a duration of time of about 50 min. The EDTA was then washed out by adding normal culture media, where the cells re-attached over a duration of time of about 200 min.
FIG. 6b is a data plot showing mean normalized impedance values over time for different regions of a map 601 of an electrode array in the cell culture. FIG. 6c show histograms of the normalized impedance values before, during, and after a washout of EDTA across the electrode array.

[2] = test system: MDCK cells; experiment: Wound healing assay (electrochemical patterning and cross-electrode impedance mapping of regrowth); assay type: cell-based, Canine; details: 1 μM, over the course of 72 hours; control culture shows regrowth after 72 hours
Description: This example describes a combined application of cross-electrode impedance mapping and cell patterning for a wound healing assay. Such assays may be used to gauge cell growth rate and metabolism and may be useful for screening drugs affecting these parameters. Compared to the electrochemical patterning described herein, other tools mechanically generate a wound in a cell culture via a mechanical scratch which is both difficult to control and limiting in terms of wound pattern.
In this example, a wound is made in MDCK cells and then growth is mapped in real time. […] These patterns were defined by applying electrode currents of −10 nA for 40 s versus a Ag/AgCl pseudo reference electrode. The regrowth of the culture was then measured using the impedance mapping method.

| Compound | duration of time over which the cells detached ([1]; 5 mM EDTA application) | duration of time over which the cells re-attached after washout ([1]; EDTA washed out by adding normal culture media) | regrowth of the culture into the wound [2] |
| --- | --- | --- | --- |
| O=C(O)CN(CCN(CC(=O)O)CC(=O)O)CC(=O)O [EDTA, ethylenediaminetetraacetic acid] | about 50 min | about 200 min |  |
| C=C1[C@@H](C)[C@H]2[C@H](Cc3ccccc3)NC(=O)[C@]23OC(=O)/C=C/[C@H](O)CCC[C@@H](C)C/C=C/[C@H]3[C@@H]1O [cytochalasin B] |  |  | very little growth |
